# According to patent US8772293B2, “Chemical compounds” (Pfizer Limited, priority 2010, dated 2014):
# pIC50: −log10 of the molar value. Structures can show the parent of a compound that is named as a salt.
# Molecular target: T1, Nav1.7 (or SCN9A) channel (Homo sapiens, UniProt Q15858)
# T1 construct: expressed in transfected cells
# Test: Nav1.7 (hSCN9A) PatchXpress electrophysiology in HEK cells
# Format: cell-based
# Conditions: PatchXpress platform; HEK cells stably expressing hSCN9A; held at V1/2 of inactivation; calculated from single point % inhibition; read-out: Nav1.7 EIC50 (estimated IC-50)
# Experimental: The ability of the compounds of formula (I) to block the Nav1.7 (or SCN9A) channel were measured using the assay described below.
# Human Embryonic Kidney (HEK) cells were transfected with an hSCN9A construct using lipofectamine reagent (Invitrogen), using standard techniques. Cells stably expressing the hSCN9A constructs were identified by their resistance to G-418 (400 μg/ml). Clones were screened for expression using the whole-cell voltage-clamp technique.
# HEK cells stably transfected with hSCN9A were maintained in DMEM medium supplemented with 10% heat-inactivated fetal bovine serum and 400 µg/ml G-418 in an incubator at 37° C. with a humidified atmosphere of 10% CO2. For HTS, cells were harvested from flasks by trypsinization and replated in an appropriate multi-well plate (typically 96 or 384 wells/plate) such that confluence would be achieved within 24 hours of plating. For electrophysiological studies, cells were removed from the culture flask by brief trypsinization and re-plated at low density onto glass cover slips. Cells were typically used for electrophysiological experiments within 24 to 72 hours after plating.
# Cover slips containing HEK cells expressing hSCN9A were placed in a bath on the stage of an inverted microscope and perfused (approximately 1 ml/minutes) with extracellular solution of the following composition: 138 mM NaCl, 2 mM CaCl2, 5.4 mM KCl, 1 mM MgCl2, 10 mM glucose, and 10 mM HEPES, pH 7.4, with NaOH. […] The osmolarity of the extracellular and intracellular solutions was 300 mOsm/kg and 295 mOsm/kg, respectively. All recordings were made at room temperature (22-24° C.) using AXOPATCH 200B amplifiers and PCLAMP software (Axon Instruments, Burlingame, Calif.).
# hSCN9A currents in HEK cells were measured using the whole-cell configuration of the patch-clamp technique (Hamill et al., 1981). Uncompensated series resistance was typically 2 to 5 mega ohms and >85% series resistance compensation was routinely achieved. As a result, voltage errors were negligible and no correction was applied. Current records were acquired at 20 to 50 KHz and filtered at 5 to 10 KHz.
# HEK cells stably transfected with hSCN9A were viewed under Hoffman contrast optics and placed in front of an array of flow pipes emitting either control or compound-containing extracellular solutions. All compounds were dissolved in dimethyl sulfoxide to make 10 mM stock solutions, which were then diluted into extracellular solution to attain the final concentrations desired. […] The voltage-dependence of inactivation was determined by applying a series of depolarizing prepulses (8 sec long in 10 mV increments) from a negative holding potential. The voltage was then immediately stepped to 0 mV to assess the magnitude of the sodium current. Currents elicited at 0 mV were plotted as a function of prepulse potential to allow estimation of the voltage at which 50% of the channels were inactivated (midpoint of inactivation or V1/2). Compounds were tested for their ability to inhibit hSCN9A sodium channels by activating the channel with a 20 msec voltage step to 0 mV following an 8 second conditioning prepulse to the empirically determined V1/2. Compound effect (% inhibition) was determined by difference in current amplitude before and after application of test compounds. For ease of comparison, “estimated IC-50” (EIC50) values were calculated from single point electrophysiology data by the following equation, (tested concentration, uM)×(100-% inhibition/% inhibition). Inhibition values <20% and >80% were excluded from the calculation.
# Electrophysiological assays were conducted with PatchXpress 7000 hardware and associated software (Molecular Devices Corp). All assay buffers and solutions were identical to those used in conventional whole-cell voltage clamp experiments described above. hSCN9A cells were grown as above to 50%-80% confluency and harvested by trypsinization. […]
# T1 sequence (Q15858 whole entry): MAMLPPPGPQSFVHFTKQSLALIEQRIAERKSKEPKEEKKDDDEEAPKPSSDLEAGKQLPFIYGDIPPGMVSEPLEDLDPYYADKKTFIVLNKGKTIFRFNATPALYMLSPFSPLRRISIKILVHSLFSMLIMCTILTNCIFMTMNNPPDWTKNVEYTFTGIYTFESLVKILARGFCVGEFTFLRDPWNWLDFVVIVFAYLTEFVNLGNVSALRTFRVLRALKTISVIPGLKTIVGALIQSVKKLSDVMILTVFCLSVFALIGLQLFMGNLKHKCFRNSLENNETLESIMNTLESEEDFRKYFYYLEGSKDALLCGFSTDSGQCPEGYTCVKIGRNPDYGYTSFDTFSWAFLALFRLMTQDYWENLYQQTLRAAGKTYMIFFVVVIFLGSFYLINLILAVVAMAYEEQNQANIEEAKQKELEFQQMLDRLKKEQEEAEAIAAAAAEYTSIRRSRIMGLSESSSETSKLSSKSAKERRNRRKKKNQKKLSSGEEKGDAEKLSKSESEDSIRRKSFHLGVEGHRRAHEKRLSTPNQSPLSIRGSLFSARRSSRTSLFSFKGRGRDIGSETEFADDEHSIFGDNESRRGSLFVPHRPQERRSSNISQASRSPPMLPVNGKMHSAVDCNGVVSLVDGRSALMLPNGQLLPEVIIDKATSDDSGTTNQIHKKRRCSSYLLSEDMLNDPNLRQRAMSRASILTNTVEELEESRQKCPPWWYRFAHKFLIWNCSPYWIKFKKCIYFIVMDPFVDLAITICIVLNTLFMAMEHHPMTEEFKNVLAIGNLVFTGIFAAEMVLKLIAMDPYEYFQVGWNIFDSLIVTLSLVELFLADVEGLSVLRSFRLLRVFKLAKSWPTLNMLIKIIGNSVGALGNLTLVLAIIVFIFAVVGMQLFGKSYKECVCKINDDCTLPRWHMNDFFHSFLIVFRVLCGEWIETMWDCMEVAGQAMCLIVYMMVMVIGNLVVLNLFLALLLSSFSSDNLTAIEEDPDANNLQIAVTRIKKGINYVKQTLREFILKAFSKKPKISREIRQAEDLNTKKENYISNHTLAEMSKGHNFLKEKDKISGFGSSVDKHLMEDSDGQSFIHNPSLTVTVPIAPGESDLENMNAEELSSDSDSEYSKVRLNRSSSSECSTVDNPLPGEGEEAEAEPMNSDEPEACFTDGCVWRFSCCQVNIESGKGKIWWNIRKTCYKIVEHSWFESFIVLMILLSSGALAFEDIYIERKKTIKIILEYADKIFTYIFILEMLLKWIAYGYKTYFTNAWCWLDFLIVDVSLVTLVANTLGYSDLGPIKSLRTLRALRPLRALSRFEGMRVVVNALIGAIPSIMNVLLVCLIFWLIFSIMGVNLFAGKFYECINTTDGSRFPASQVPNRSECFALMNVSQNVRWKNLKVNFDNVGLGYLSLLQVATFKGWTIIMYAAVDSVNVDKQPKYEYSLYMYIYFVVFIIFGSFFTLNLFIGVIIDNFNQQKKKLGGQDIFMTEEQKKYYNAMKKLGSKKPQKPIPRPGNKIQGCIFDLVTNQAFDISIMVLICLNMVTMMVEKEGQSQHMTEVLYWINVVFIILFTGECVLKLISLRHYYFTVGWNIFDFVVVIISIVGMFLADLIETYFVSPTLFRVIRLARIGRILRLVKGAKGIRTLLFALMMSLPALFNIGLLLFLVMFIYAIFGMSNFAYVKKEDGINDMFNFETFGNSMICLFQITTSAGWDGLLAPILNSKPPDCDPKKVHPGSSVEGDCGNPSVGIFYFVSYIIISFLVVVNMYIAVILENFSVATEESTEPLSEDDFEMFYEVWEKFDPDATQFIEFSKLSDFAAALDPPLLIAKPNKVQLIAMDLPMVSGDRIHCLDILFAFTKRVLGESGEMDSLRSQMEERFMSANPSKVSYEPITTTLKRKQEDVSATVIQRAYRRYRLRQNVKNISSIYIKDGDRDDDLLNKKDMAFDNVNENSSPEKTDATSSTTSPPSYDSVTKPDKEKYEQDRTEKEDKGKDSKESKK
row,SMILES,pIC50
1,"O=S(=O)(Nc1nncs1)c1cc(Cl)c(Oc2cc(Cl)c(-c3cccc(F)c3)cc2-c2ccnnc2)cc1F [Example 26, 5-Chloro-4-{[2-chloro-3′-fluoro-5-(pyridazin-4-yl)biphenyl-4-yl]oxy}-2-fluoro-N-(1,3,4-thiadiazol-2-yl)benzenesulfonamide]",8.64
2,"O=S(=O)(Nc1nncs1)c1cc(Cl)c(Oc2cc(Cl)c(-c3ccccc3F)cc2-c2ccnnc2)cc1F [Example 27, 5-Chloro-4-{[2-chloro-2′-fluoro-5-(pyridazin-4-yl)biphenyl-4-yl]oxy}-2-fluoro-N-(1,3,4-thiadiazol-2-yl)benzenesulfonamide]",9.05
3,"O=S(=O)(Nc1nncs1)c1cc(Cl)c(Oc2cc(Cl)c(-c3cccc(C(F)(F)F)c3)cc2-c2ccnnc2)cc1F [Example 28, 5-Chloro-4-{[2-chloro-5-(pyridazin-4-yl)-3′-(trifluoromethyl)biphenyl-4-yl]oxy}-2-fluoro-N-(1,3,4-thiadiazol-2-yl)benzenesulfonamide]",9.05
4,"O=S(=O)(Nc1nncs1)c1cc(Cl)c(Oc2ccc(-c3ccc(Cl)c(C(F)(F)F)c3)cc2-c2ccnnc2)cc1F [Example 29, 5-Chloro-4-{[4′-chloro-3-(pyridazin-4-yl)-3′-(trifluoromethyl)biphenyl-4-yl]oxy}-2-fluoro-N-(1,3,4-thiadiazol-2-yl)benzenesulfonamide]",9.10
5,"O=S(=O)(Nc1nncs1)c1cc(Cl)c(Oc2ccc(-c3ccc(C(F)(F)F)nc3)cc2-c2ccnnc2)cc1F [Example 30, 5-Chloro-2-fluoro-4-{2-(pyridazin-4-yl)-4-[6-(trifluoromethyl)pyridin-3-yl]phenoxy}-N-(1,3,4-thiadiazol-2-yl)benzenesulfonamide]",7.64
6,"O=S(=O)(Nc1nncs1)c1cc(Cl)c(Oc2ccc(-c3cccc(C(F)(F)F)n3)cc2-c2ccnnc2)cc1F [Example 31, 5-Chloro-2-fluoro-4-{2-(pyridazin-4-yl)-4-[6-(trifluoromethyl)pyridin-2-yl]phenoxy}-N-(1,3,4-thiadiazol-2-yl)benzenesulfonamide]",7.80
7,"N#Cc1cccc(-c2ccc(Oc3cc(F)c(S(=O)(=O)Nc4nncs4)cc3Cl)c(-c3c[nH]nc3N)c2)c1 [Example 32, 4-{[3-(5-Amino-1H-pyrazol-4-yl)-3′-cyanobiphenyl-4-yl]oxy}-5-chloro-2-fluoro-N-(1,3,4-thiadiazol-2-yl)benzenesulfonamide]",8.28
8,O=S(=O)(Nc1nncs1)c1cc(Cl)c(Oc2ccc(-c3ccnc(C(F)(F)F)c3)cc2-c2ccnnc2)cc1F [Example 33],7.80
9,"O=S(=O)(Nc1nncs1)c1cc(Cl)c(Oc2ccc(-c3ccc(C(F)(F)F)cc3)cc2-c2ccnc(N3CCNCC3)c2)cc1F [Example 34, 5-Chloro-2-fluoro-4-({3-[2-(piperazin-1-yl)pyridin-4-yl]-4′-(trifluoromethyl)biphenyl-4-yl}oxy)-N-(1,3,4-thiadiazol-2-yl)benzenesulfonamide, hydrochloride]",9.30
10,"O=S(=O)(Nc1ccncn1)c1cc(Cl)c(Oc2ccc(-c3ccc(C(F)(F)F)cc3)cc2-c2ccnc(N3CCNCC3)c2)cc1F [Example 35, 5-Chloro-2-fluoro-4-({3-[2-(piperazin-1-yl)pyridin-4-yl]-4′-(trifluoromethyl)biphenyl-4-yl}oxy)-N-(pyrimidin-4-yl)benzenesulfonamide hydrochloride salt]",8.66
11,"O=S(=O)(Nc1nncs1)c1cc(Cl)c(Oc2cc(-c3cccc(F)c3)c(Cl)cc2-c2ccnnc2)cc1F [Example 36, 5-Chloro-4-[(6-chloro-3′-fluoro-4-pyridazin-4-ylbiphenyl-3-yl)oxy]-2-fluoro-N-1,3,4-thiadiazol-2-ylbenzenesulfonamide]",7.96
12,"O=S(=O)(Nc1nncs1)c1cc(Cl)c(Oc2cc(-c3ccc(F)cc3)c(Cl)cc2-c2ccnnc2)cc1F [Example 37, 5-Chloro-4-[(6-chloro-4′-fluoro-4-pyridazin-4-ylbiphenyl-3-yl)oxy]-2-fluoro-N-1,3,4-thiadiazol-2-ylbenzenesulfonamide]",7.92
13,"O=S(=O)(Nc1nncs1)c1cc(Cl)c(Oc2cc(-c3ccccc3F)c(Cl)cc2-c2ccnnc2)cc1F [Example 38, 5-Chloro-4-[(6-chloro-2′-fluoro-4-pyridazin-4-ylbiphenyl-3-yl)oxy]-2-fluoro-N-1,3,4-thiadiazol-2-ylbenzenesulfonamide]",7.74
14,"N#Cc1cccc(-c2ccc(Oc3cc(F)c(S(=O)(=O)Nc4nncs4)cc3Cl)c(-c3ccnnc3)c2)c1 [Example 39, 5-chloro-4-[(3′-cyano-3-pyridazin-4-ylbiphenyl-4-yl)oxy]-2-fluoro-N-1,3,4-thiadiazol-2-ylbenzenesulfonamide]",8.11
15,"O=S(=O)(Nc1ncccn1)c1cc(Cl)c(Oc2ccc(-c3ccc(C(F)(F)F)cc3)cc2-c2ccnc(N3CCNCC3)c2)cc1F [Example 40, 5-chloro-2-fluoro-4-{[3-(2-piperazin-1-ylpyridin-4-yl)-4′-(trifluoromethyl)biphenyl-4-yl]oxy}-N-pyrimidin-2-ylbenzenesulfonamide]",9.00
